Laboratory results reported in patent US9096595B2, “7-(heteroaryl-amino)-6,7,8,9-tetrahydropyrido[1,2-a]indol acetic acid derivatives and their use as prostaglandin D2 receptor modulators” (Actelion Pharmaceuticals Ltd, priority 2011, dated 2015).

How the values were obtained:
hCRTH2 receptor [1] = molecular target: T1, hCRTH2 receptor (Homo sapiens (Human), UniProt Q9Y5Y4); assay: hCRTH2 receptor membranes radioligand (3H-PGD2) displacement assay; details: 3H-PGD2 2.5 nM, HEK293-hCRTH2 membrane fragments, Binding-Buffer with 0.1% BSA
T1 sequence (Q9Y5Y4 whole entry, the tested form may be a part): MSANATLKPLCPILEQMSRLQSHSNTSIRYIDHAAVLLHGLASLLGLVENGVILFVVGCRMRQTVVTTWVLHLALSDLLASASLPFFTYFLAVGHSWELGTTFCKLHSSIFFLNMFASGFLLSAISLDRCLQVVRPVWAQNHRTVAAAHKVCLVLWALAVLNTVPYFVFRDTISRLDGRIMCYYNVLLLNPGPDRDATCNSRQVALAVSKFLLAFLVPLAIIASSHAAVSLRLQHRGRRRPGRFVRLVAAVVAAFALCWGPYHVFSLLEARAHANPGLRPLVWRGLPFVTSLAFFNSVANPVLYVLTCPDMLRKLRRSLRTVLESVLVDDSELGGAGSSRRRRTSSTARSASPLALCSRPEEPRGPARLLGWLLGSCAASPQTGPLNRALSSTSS
Procedure: (§1) First, recombinant HEK293-hCRTH2 cells were detached from culture plates into 5 ml buffer A/plate (Buffer A: 5 mM Tris, 1 mM MgCl2-6H2O pH=7.4) using a rubber policeman. Cells were then transferred into centrifugation tubes and centrifuged for 5 min at 400 g. The cell pellet was resuspended in the same buffer and tubes were frozen at −80° C. Cells were thawed and membrane fragments were generated by homogenization using a polytron homogenizer (30 seconds). The membrane fragments were then centrifuged at 3000 g for 20 minutes and resuspended in buffer C (Buffer C: 75 mM Tris, 25 mM MgCl2, 250 mM Saccharose pH 7.4). Aliquots of membrane fragments were stored at −20° C.
(§2) Binding assay was performed in a final assay volume of 250 μl. First, 25 μl of test compound, previously diluted in Binding-Buffer (Binding-Buffer: 50 mM Tris-Base, 100 mM NaCl, 1 mM EDTA, 0.1% BSA (protease free), 0.01% NaN3, 10 mM MnCl2 pH 7.0) was placed into each well. After addition of 75 μl Binding-Buffer, 50 μl of the radioligand ^3H-PGD2 (at 2.5 nM (220.000 dpm/well) from ANAWA ART0662) was added to each well. Binding assay was started by addition of 100 μl CRTH2 membrane fragments, reaching a final concentration of 20 μg/well. For non-specific binding, PGD2 was added to the reaction mixture to […] final concentration. This assay mix was incubated for 90 minutes at room temperature and then filtered through a GF/C filter 96-well plate which was pre-soaked for 3 hours in 0.5% polyethyleneimine (PEI). The filter-wells were washed three times with ice cold Binding-Buffer. Then, 40 μl of Microscint-40 (Packard) was added to each well and the retained radioactivity quantified in a Topcount (Packard).

hCRTH2 receptor [2] = molecular target: T1, hCRTH2 receptor; assay: Radioligand displacement assay in presence of human serum albumin (HSA); details: 3H-PGD2 2.5 nM, HEK293-hCRTH2 membrane fragments, Binding-Buffer-HSA with 0.5% human serum albumin instead of 0.1% BSA
Procedure: as §1, §2
Radioligand displacement assay in presence of human serum albumin (HSA) was performed as described above, with following modifications. Binding-Buffer-HSA: Binding-buffer+0.5% Sigma Albumin from Human serum A1887 (instead of 0.1% BSA). A volume of 25 μl test compound, previously diluted in Binding-Buffer-HSA was placed into each well. After addition of 75 μl Binding-Buffer-HSA, 50 μl of ^3H-PGD2 (at 2.5 nM (220.000 dpm/well) from ANAWA ART0662) was added to each well. Remaining protocol was identical as described above.

Row | Compound | IC50 (hCRTH2 receptor [1]) | IC50 (hCRTH2 receptor [2])
1 | CN(c1ncc(Cl)cn1)C1CCc2c(CC(=O)O)c3ccccc3n2C1 (centres unmarked) [Example 1, 2-(7-((5-chloropyrimidin-2-yl)(methyl)amino)-6,7,8,9-tetrahydropyrido[1,2-a]indol-10-yl)acetic acid] | 0.021 µM | 0.066 µM
2 | CN(c1ncc(F)cn1)C1CCc2c(CC(=O)O)c3ccccc3n2C1 (centres unmarked) [Example 2, 2-(7-((5-fluoropyrimidin-2-yl)(methyl)amino)-6,7,8,9-tetrahydropyrido[1,2-a]indol-10-yl)acetic acid] | 0.009 µM | 0.029 µM
3 | CN(c1ncc(C(F)(F)F)cn1)C1CCc2c(CC(=O)O)c3ccccc3n2C1 (centres unmarked) [Example 3, 2-(7-(methyl(5-(trifluoromethyl)pyrimidin-2-yl)amino)-6,7,8,9-tetrahydropyrido[1,2-a]indol-10-yl)acetic acid] | 0.008 µM | 0.152 µM
4 | CN(c1nc2ccc(F)cc2s1)C1CCc2c(CC(=O)O)c3ccccc3n2C1 (centres unmarked) [Example 4, 2-(7-((6-fluorobenzo[d]thiazol-2-yl)(methyl)amino)-6,7,8,9-tetrahydropyrido[1,2-a]indol-10-yl)acetic acid] | 0.009 µM | 0.043 µM
5 | CN(c1nc2cc(F)ccc2o1)C1CCc2c(CC(=O)O)c3ccccc3n2C1 (centres unmarked) [Example 5, 2-(7-((5-fluorobenzo[d]oxazol-2-yl)(methyl)amino)-6,7,8,9-tetrahydropyrido[1,2-a]indol-10-yl)acetic acid] | 0.016 µM | 0.024 µM
6 | CN(c1nc2cc(F)ccc2s1)C1CCc2c(CC(=O)O)c3ccccc3n2C1 (centres unmarked) [Example 6, 2-(7-((5-fluorobenzo[d]thiazol-2-yl)(methyl)amino)-6,7,8,9-tetrahydropyrido[1,2-a]indol-10-yl)acetic acid] | 0.092 µM | 0.059 µM
7 | CN(c1ncc(F)cn1)C1CCc2c(CC(=O)O)c3cc(F)ccc3n2C1 (centres unmarked) [Example 7, 2-(2-fluoro-7-((5-fluoropyrimidin-2-yl)(methyl)amino)-6,7,8,9-tetrahydropyrido[1,2-a]indol-10-yl)acetic acid] | 0.017 µM | 0.119 µM
8 | CN(c1nc2cc(F)ccc2o1)C1CCc2c(CC(=O)O)c3cc(F)ccc3n2C1 (centres unmarked) [Example 8, 2-(2-fluoro-7-((5-fluorobenzo[d]oxazol-2-yl)(methyl)amino)-6,7,8,9-tetrahydropyrido[1,2-a]indol-10-yl)acetic acid] | 0.012 µM | 0.123 µM
9 | CN(c1ncc(F)cn1)C1CCc2c(CC(=O)O)c3ccc(F)cc3n2C1 (centres unmarked) [Example 9, 2-(3-fluoro-7-((5-fluoropyrimidin-2-yl)(methyl)amino)-6,7,8,9-tetrahydropyrido[1,2-a]indol-10-yl)acetic acid] | 0.001 µM | 0.01 µM
10 | CN(c1nc2cc(F)ccc2o1)C1CCc2c(CC(=O)O)c3ccc(F)cc3n2C1 (centres unmarked) [Example 10, 2-(3-fluoro-7-((5-fluorobenzo[d]oxazol-2-yl)(methyl)amino)-6,7,8,9-tetrahydropyrido[1,2-a]indol-10-yl)acetic acid] | 0.0007 µM | 0.007 µM
11 | COc1ccc2c(c1)c(CC(=O)O)c1n2CC(N(C)c2ncc(F)cn2)CC1 (centres unmarked) [Example 11, 2-(7-((5-fluoropyrimidin-2-yl)(methyl)amino)-2-methoxy-6,7,8,9-tetrahydropyrido[1,2-a]indol-10-yl)acetic acid] | 0.42 µM | –
12 | COc1ccc2c(c1)c(CC(=O)O)c1n2CC(N(C)c2nc3cc(F)ccc3o2)CC1 (centres unmarked) [Example 12, 2-(7-((5-fluorobenzo[d]oxazol-2-yl)(methyl)amino)-2-methoxy-6,7,8,9-tetrahydropyrido[1,2-a]indol-10-yl)acetic acid] | 0.231 µM | –
13 | Cc1ccc2c(c1)c(CC(=O)O)c1n2CC(N(C)c2ncc(F)cn2)CC1 (centres unmarked) [Example 13, 2-(7-((5-fluoropyrimidin-2-yl)(methyl)amino)-2-methyl-6,7,8,9-tetrahydropyrido[1,2-a]indol-10-yl)acetic acid] | 0.417 µM | –
14 | Cc1ccc2c(c1)c(CC(=O)O)c1n2CC(N(C)c2nc3cc(F)ccc3o2)CC1 (centres unmarked) [Example 14, 2-(7-((5-fluorobenzo[d]oxazol-2-yl)(methyl)amino)-2-methyl-6,7,8,9-tetrahydropyrido[1,2-a]indol-10-yl)acetic acid] | 0.042 µM | > 1 µM
15 | CN(c1ncc(F)cn1)C1CCc2c(CC(=O)O)c3cc(Cl)ccc3n2C1 (centres unmarked) [Example 15, 2-(2-chloro-7-((5-fluoropyrimidin-2-yl)(methyl)amino)-6,7,8,9-tetrahydropyrido[1,2-a]indol-10-yl)acetic acid] | 0.136 µM | –
16 | CN(c1nc2cc(F)ccc2o1)C1CCc2c(CC(=O)O)c3cc(Cl)ccc3n2C1 (centres unmarked) [Example 16, 2-(2-chloro-7-((5-fluorobenzo[d]oxazol-2-yl)(methyl)amino)-6,7,8,9-tetrahydropyrido[1,2-a]indol-10-yl)acetic acid] | 0.021 µM | > 1 µM
17 | CN(c1ncc(Cl)cn1)C1CCc2c(CC(=O)O)c3ccc(F)cc3n2C1 (centres unmarked) [Example 17, 2-(7-((5-chloropyrimidin-2-yl)(methyl)amino)-3-fluoro-6,7,8,9-tetrahydropyrido[1,2-a]indol-10-yl)acetic acid] | 0.004 µM | 0.046 µM
18 | CN(c1ncc(C(F)(F)F)cn1)C1CCc2c(CC(=O)O)c3ccc(F)cc3n2C1 (centres unmarked) [Example 18, 2-(3-fluoro-7-(methyl(5-(trifluoromethyl)pyrimidin-2-yl)amino)-6,7,8,9-tetrahydropyrido[1,2-a]indol-10-yl)acetic acid] | 0.006 µM | 0.071 µM
19 | CN(c1nc2cc(F)ccc2s1)C1CCc2c(CC(=O)O)c3ccc(F)cc3n2C1 (centres unmarked) [Example 19, 2-(3-fluoro-7-((5-fluorobenzo[d]thiazol-2-yl)(methyl)amino)-6,7,8,9-tetrahydropyrido[1,2-a]indol-10-yl)acetic acid] | 0.051 µM | –
20 | CN(c1nc2ccc(F)cc2o1)C1CCc2c(CC(=O)O)c3ccc(F)cc3n2C1 (centres unmarked) [Example 20, 2-(3-fluoro-7-((6-fluorobenzo[d]oxazol-2-yl)(methyl)amino)-6,7,8,9-tetrahydropyrido[1,2-a]indol-10-yl)acetic acid] | 0.001 µM | 0.02 µM
21 | CN(c1ncc(Cl)cn1)C1CCc2c(CC(=O)O)c3ccc(Cl)cc3n2C1 (centres unmarked) [Example 21, 2-(3-chloro-7-((5-chloropyrimidin-2-yl)(methyl)amino)-6,7,8,9-tetrahydropyrido[1,2-a]indol-10-yl)acetic acid] | 0.007 µM | 0.031 µM
22 | CN(c1ncc(Cl)cn1)C1CCc2c(CC(=O)O)c3ccc(C(F)(F)F)cc3n2C1 (centres unmarked) [Example 22, 2-(7-((5-chloropyrimidin-2-yl)(methyl)amino)-3-(trifluoromethyl)-6,7,8,9-tetrahydropyrido[1,2-a]indol-10-yl)acetic acid] | 0.009 µM | 0.038 µM
23 | CN(c1ncc(Cl)cn1)C1CCc2c(CC(=O)O)c3cc(OC(F)(F)F)ccc3n2C1 (centres unmarked) [Example 23, 2-(7-((5-chloropyrimidin-2-yl)(methyl)amino)-2-(trifluoromethoxy)-6,7,8,9-tetrahydropyrido[1,2-a]indol-10-yl)acetic acid] | 0.354 µM | –
24 | CN(c1ncc(F)cn1)C1CCc2c(CC(=O)O)c3cc(OC(F)(F)F)ccc3n2C1 (centres unmarked) [Example 25, 2-(7-((5-fluoropyrimidin-2-yl)(methyl)amino)-2-(trifluoromethoxy)-6,7,8,9-tetrahydropyrido[1,2-a]indol-10-yl)acetic acid] | 0.141 µM | –
25 | CN(c1nc2ccc(F)cc2s1)C1CCc2c(CC(=O)O)c3cc(OC(F)(F)F)ccc3n2C1 (centres unmarked) [Example 27, 2-(7-((6-fluorobenzo[d]thiazol-2-yl)(methyl)amino)-2-(trifluoromethoxy)-6,7,8,9-tetrahydropyrido[1,2-a]indol-10-yl)acetic acid] | 0.812 µM | –
26 | CN(c1nc2cc(F)ccc2o1)C1CCc2c(CC(=O)O)c3cc(OC(F)(F)F)ccc3n2C1 (centres unmarked) [Example 29, 2-(7-((5-fluorobenzo[d]oxazol-2-yl)(methyl)amino)-2-(trifluoromethoxy)-6,7,8,9-tetrahydropyrido[1,2-a]indol-10-yl)acetic acid] | 0.964 µM | –
27 | Cc1nc(N(C)C2CCc3c(CC(=O)O)c4ccc(Cl)cc4n3C2)c2ccccc2n1 (centres unmarked) [Example 42, 2-(3-chloro-7-(methyl(2-methylquinazolin-4-yl)amino)-6,7,8,9-tetrahydropyrido[1,2-a]indol-10-yl)acetic acid] | 0.071 µM | –
